Assay results: patent US8697730B2, “5-lipoxygenase activating protein (FLAP) inhibitor” (Panmira Pharmaceuticals, LLC, priority 2007, dated 2014)
Like-named read-outs stand apart in the source and are kept apart here.

Legend:
in vivo [1] = settings: male, Sprague-Dawley, rat, po
CYP2C9 = CYP2C9 (Homo sapiens, UniProt P11712); assay: biochemical
urinary LTE4 production = assay: Phase 1 study, urinary LTE4; assay type: in vivo, human
Procedure: (§1) Pharmacodynamics: Whole blood ionophore-stimulated leukotriene LTB4 and urinary LTE4 production are assayed by ELISA and mass spectrometry, respectively.
(§2) Obtain pre-dose fasting blood samples for hematology determinations. Obtain pre-dose fasting blood samples for serum chemistry determinations. Obtain pre-dose blood samples (5 mL EDTA and 4 mL heparinized) for baseline PK and LTB4. Collect ‘spot’ urine prior to study drug administration for baseline (pre-dose) LTE4. Administer study drug. […] Collect blood samples (2 mL heparinized) for LTB4 at 0.5, 1, 2, 3, 4, 6, 8, and 12 hours. Collect urine for LTE4 for the following separate intervals: 0-3, 3-6, 6-9, and 9-12 hours. For twice daily dosing group (if conducted): administer study drug 12 hours±30 minutes after prior dose, preceded by ≧2 hours fast.
(§3) Obtain pre-dose fasting blood samples for hematology determinations. Obtain pre-dose fasting blood samples for serum chemistry determinations. […] Collect blood samples (2 mL heparinized) for LTB4 at 24 hours after the first study drug administration; 4 mL blood will be collected at this time point in the Single Dose Phase. Collect ‘spot’ urine sample for LTE4 at 24 and 36 hours after first study drug administration.
(§4) Obtain pre-dose blood samples (5 mL EDTA and 2 mL heparinized) for PK and LTB4. Collect pre-dose urine for LTE4. Administer study drug (last dose of drug). […] Collect blood samples (2 mL heparinized) for LTB4 at 0.5, 1, 2, 3, 4, 6, 8, and 12 hours. Collect urine for LTE4 for the following separate intervals: 0-3, 3-6, 6-9, and 9-12 hours after study drug administration.
(§5) Record vital signs 24 hours after Day 11 study drug administration. […] Collect blood sample (4 mL heparinized) for LTB4 at 24 hours after Day 11 study drug administration. Collect ‘spot’ urine sample for LTE4 at 24 hours after Day 11 study drug administration.
(§6) Whole blood ionophore-stimulated leukotriene LTB4 and urinary LTE4 production were assayed by ELISA and mass spectrometry, respectively.

CYP3A4 = CYP3A4 (Homo sapiens, UniProt P08684); assay: biochemical
Sequence of CYP3A4 (P08684 whole entry): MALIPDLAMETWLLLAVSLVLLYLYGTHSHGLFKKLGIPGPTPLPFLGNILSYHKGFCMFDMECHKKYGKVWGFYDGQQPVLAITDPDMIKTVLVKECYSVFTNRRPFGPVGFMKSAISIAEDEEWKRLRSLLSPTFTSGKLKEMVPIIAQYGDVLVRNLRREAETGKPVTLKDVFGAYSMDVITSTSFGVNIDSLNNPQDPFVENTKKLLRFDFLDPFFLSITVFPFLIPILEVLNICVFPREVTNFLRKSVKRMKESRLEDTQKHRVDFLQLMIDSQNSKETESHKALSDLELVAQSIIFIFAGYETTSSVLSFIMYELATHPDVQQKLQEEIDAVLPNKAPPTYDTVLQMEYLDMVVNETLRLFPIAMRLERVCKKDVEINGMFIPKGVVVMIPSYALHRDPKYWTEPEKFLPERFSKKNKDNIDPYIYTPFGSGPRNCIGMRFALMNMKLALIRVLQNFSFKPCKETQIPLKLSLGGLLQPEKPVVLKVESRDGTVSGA

[2] = Solubility in organic solvents; assay type: physicochemical; settings: for solubility: 25 °C, Form C, read-out: Solubility, mg/mL at 25° C.
CYP2C19 = CYP2C19 (Homo sapiens, UniProt P33261); assay: biochemical
Sequence of CYP2C19 (P33261 whole entry): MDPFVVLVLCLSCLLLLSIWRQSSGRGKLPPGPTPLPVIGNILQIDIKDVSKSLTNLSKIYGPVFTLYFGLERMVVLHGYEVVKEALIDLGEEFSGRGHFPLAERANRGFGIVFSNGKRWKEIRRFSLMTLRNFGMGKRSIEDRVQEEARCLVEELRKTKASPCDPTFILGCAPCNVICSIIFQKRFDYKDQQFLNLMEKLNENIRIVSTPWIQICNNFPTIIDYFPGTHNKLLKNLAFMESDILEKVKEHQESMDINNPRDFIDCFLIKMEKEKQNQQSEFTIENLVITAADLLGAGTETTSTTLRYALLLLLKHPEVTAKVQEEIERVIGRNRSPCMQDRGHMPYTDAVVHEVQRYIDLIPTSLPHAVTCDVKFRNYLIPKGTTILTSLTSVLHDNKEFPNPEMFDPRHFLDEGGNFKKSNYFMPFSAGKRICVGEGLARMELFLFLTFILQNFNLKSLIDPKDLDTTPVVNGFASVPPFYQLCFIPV

[3] = in vivo, po, 250 mg/kg
Procedure: Twenty-four hours following the final administration mice were placed into an enclosed Plexiglas chamber and exposed to CO2 for a period of 1-2 minutes or until breathing ceased. They were then removed and blood was taken via a cardiac puncture and cervical dislocation was performed. Subjects were next placed in a supine position and a midline incision made. All organs were inspected and the livers removed by careful dissection. Liver weights were recorded as well as any gross abnormalities.

in vivo [4] = assay: in vivo; design: species or system female Beagle dogs; settings: dog
Procedure: For comparison, an IV formulation was also tested. Table 18 summarizes the results of the experiments of administration of the various oral formulations to female beagle dogs.

[5] = system: whole blood ionophore-stimulated leukotriene LTB4; assay: Phase 1 study, whole blood ionophore-stimulated LTB4; assay type: in vivo, human
Procedure: as §1, §2, §3, §4, §5, §6

[6] = multiple dose, 450 mg daily, Day 1
[7] = multiple dose, 450 mg daily, Day 11
[8] = multiple dose, 1000 mg daily, Day 1
[9] = multiple dose, 1000 mg daily, Day 11
[10] = single dose 50 mg, oral solution
[11] = single dose 150 mg, oral solution
[12] = single dose 300 mg, oral solution
[13] = single dose 600 mg, oral solution
[14] = single dose 1000 mg, oral solution

Sequence of CYP2C9 (P11712 whole entry): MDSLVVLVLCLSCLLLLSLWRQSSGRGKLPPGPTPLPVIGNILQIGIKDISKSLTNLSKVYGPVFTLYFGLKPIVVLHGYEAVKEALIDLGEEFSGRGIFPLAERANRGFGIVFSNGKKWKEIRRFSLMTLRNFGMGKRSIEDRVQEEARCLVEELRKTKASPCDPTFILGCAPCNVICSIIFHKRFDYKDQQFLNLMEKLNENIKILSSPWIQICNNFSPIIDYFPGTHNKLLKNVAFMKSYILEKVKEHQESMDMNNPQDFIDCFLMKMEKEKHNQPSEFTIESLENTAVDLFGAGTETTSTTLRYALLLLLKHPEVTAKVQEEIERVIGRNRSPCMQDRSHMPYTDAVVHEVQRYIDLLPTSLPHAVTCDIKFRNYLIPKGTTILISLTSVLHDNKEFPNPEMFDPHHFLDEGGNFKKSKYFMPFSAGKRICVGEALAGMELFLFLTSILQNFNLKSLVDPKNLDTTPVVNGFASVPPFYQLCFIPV

Question: With COc1ccc(-c2ccc(Cn3c(CC(C)(C)C(=O)O)c(SC(C)(C)C)c4cc(OCc5ccccn5)ccc43)cc2)cn1 [sodium 3-[5-(pyridin-2-ylmethoxy)-3-(2-methyl-2-propylthio)-1-[4-(2-methoxypyridin-5-yl)benzyl]-indol-2-yl]-2,2-dimethyl-propionate] as the compound, how does the Tmax (in vivo [1]) read?
Answer: Its Tmax is ≥ 2 h.

Question: What about the IC50 (CYP2C9) of the same compound?
Answer: The IC50 was ≥ 50 µM.

Question: And the “LTE4 level at t = 24 hrs. (% of baseline)” value (“LTE4 level … (% of baseline)” for short) (urinary LTE4 production; [6])?
Answer: Its value is 8.2 ± 4.3 % of baseline.

Question: What about the “LTE4 level … (% of baseline)” value (urinary LTE4 production; [7]) of the same compound?
Answer: Its value is 2.8 ± 0.9 % of baseline.

Question: What about the “LTE4 level … (% of baseline)” value (urinary LTE4 production; [8]) of the same compound?
Answer: The value was 2.5 ± 0.6 % of baseline.

Question: And the “LTE4 level … (% of baseline)” value (urinary LTE4 production; [9])?
Answer: Its value is 2.3 ± 0.6 % of baseline.

Question: What about the “LTE4 level … (% of baseline)” value (urinary LTE4 production; [10]) of the same compound?
Answer: The value was 77 ± 26 % of baseline.

Question: And the “LTE4 level … (% of baseline)” value (urinary LTE4 production; [11])?
Answer: The value was 23 ± 10 % of baseline.

Question: What about the “LTE4 level … (% of baseline)” value (urinary LTE4 production; [12]) of the same compound?
Answer: Its value is 10 ± 5 % of baseline.

Question: What about the “LTE4 level … (% of baseline)” value (urinary LTE4 production; [13]) of the same compound?
Answer: Its value is 8 ± 3 % of baseline.

Question: What about the “LTE4 level … (% of baseline)” value (urinary LTE4 production; [14]) of the same compound?
Answer: The value was 3 ± 0 % of baseline.

Question: What about the IC50 (CYP3A4) of the same compound?
Answer: Its IC50 is > 50 µM.

Question: What about the solubility ([2]; aqueous with cosolvent or surfactant or cyclodextrin, 0.5% Methylcellulose/water) of the same compound?
Answer: Its solubility is 9.3 mg/mL.

Question: And the solubility ([2]; organic solvent or mixture, Acetonitrile)?
Answer: Its solubility is 0.2 mg/mL.

Question: What about the solubility ([2]; organic solvent or mixture, Ethanol) of the same compound?
Answer: Its solubility is 17.1 mg/mL.

Question: And the solubility ([2]; organic solvent or mixture, Isopropanol)?
Answer: Its solubility is 1.1 mg/mL.

Question: And the solubility ([2]; organic solvent or mixture, Methanol)?
Answer: The solubility was > 50 mg/mL.

Question: And the solubility ([2]; organic solvent or mixture, Propylene glycol)?
Answer: The solubility was 13.4 mg/mL.

Question: What about the solubility in words ([2]; acetonitrile) of the same compound?
Answer: Its solubility in words is “sparingly soluble”.

Question: What about the solubility in words ([2]; isopropanol) of the same compound?
Answer: Its solubility in words is “sparingly soluble”.

Question: What about the solubility in words ([2]; methanol) of the same compound?
Answer: Its solubility in words is “very soluble”.

Question: What about the IC50 (CYP2C19) of the same compound?
Answer: Its IC50 is 22 µM.

Question: What about the liver weight alteration ([3]; female, CD-1, mouse, 4 days) of the same compound?
Answer: Its liver weight alteration is 9.1%.

Question: And the necropsy findings ([3]; mouse)?
Answer: The necropsy findings was “no gross abnormalities”.

Question: And the AUCdose-adjusted (in vivo [4]; iv, 2 mg/kg)?
Answer: The AUCdose-adjusted was 6.0.

Question: And the AUC(0-inf) (in vivo [4]; female, Beagle, iv, 2 mg/kg)?
Answer: Its AUC(0-inf) is 11900 ng·h/mL.

Question: What about the “CLp” value (in vivo [4]; female, Beagle, iv, 2 mg/kg) of the same compound?
Answer: The value was 2.9 mL/min/kg.

Question: And the Cmax (in vivo [4]; female, Beagle, iv, 2 mg/kg)?
Answer: Its Cmax is 3200 ng/mL.

Question: What about the Tmax (in vivo [4]; female, Beagle, iv, 2 mg/kg) of the same compound?
Answer: Its Tmax is 0.017 h.

Question: And the Vd (in vivo [4]; female, Beagle, iv, 2 mg/kg)?
Answer: Its Vd is 0.4 L/kg.

Question: What about the bioavailability (in vivo [4]; female, Beagle, iv, 2 mg/kg) of the same compound?
Answer: The bioavailability was 100%.

Question: What about the half-life (in vivo [4]; female, Beagle, iv, 2 mg/kg) of the same compound?
Answer: The half-life was 7.7 h.

Question: And the Tmax (in vivo [4]; female, Beagle, po, 5 mg/kg)?
Answer: Its Tmax is 1.7 h.

Question: And the “LTB4 level at t = 24 hrs. (% of baseline)” value (shortened to “LTB4 level … (% of baseline)”) [5, 6]?
Answer: The value was 24 ± 6.7 % of baseline.

Question: And the “LTB4 level … (% of baseline)” value [5, 7]?
Answer: The value was 26 ± 7.4 % of baseline.

Question: What about the “LTB4 level … (% of baseline)” value [5, 8] of the same compound?
Answer: Its value is 2.7 ± 1.1 % of baseline.

Question: What about the “LTB4 level … (% of baseline)” value [5, 9] of the same compound?
Answer: The value was 1.0 ± 0.6 % of baseline.

Question: What about the “LTB4 level … (% of baseline)” value [5, 10] of the same compound?
Answer: Its value is 75 ± 15 % of baseline.

Question: And the “LTB4 level … (% of baseline)” value [5, 11]?
Answer: The value was 58 ± 18 % of baseline.

Question: And the “LTB4 level … (% of baseline)” value [5, 12]?
Answer: The value was 36 ± 6.5 % of baseline.

Question: And the “LTB4 level … (% of baseline)” value [5, 13]?
Answer: The value was 25 ± 8.7 % of baseline.

Question: What about the “LTB4 level … (% of baseline)” value [5, 14] of the same compound?
Answer: Its value is 23 ± 12 % of baseline.
